According to US7205382B2, “Peptides, the production and use thereof for binding immunoglobulins” (Fresenius Medical Care Affina GmbH, priority 2000, dated 2007):
Bridge positions count the residues as written; N and C are the ends. Square brackets hold non-standard residues; d marks the D form. Ends that are not written are not given here. cellulose = not defined here; βAla = NCCC(=O)O

How the values were obtained:
Assay type in all cases: binding
Set-up in all cases: key: No binding of immunoglobulin for the defined peptide variant, detection negative: 0; Binding of immunoglobulin for the defined peptide variant, detection positive: +
serum albumin = assay: Cellulose-immobilized 13-mer peptide variants incubated with serum albumin (negative control), anti-human IgG-AP detection; settings: blocking buffer without addition, 3 h room temperature
Procedure: (§1) Peptides consisting of 13 amino acids were synthesized by solid phase synthesis (Houghten, 1985) on a cellulose matrix with (βA)(βA) as a spacer group.
(§2) The immobilized peptides were tested for their immunoglobulin binding capability by incubation with human IgG-Fc in a buffered solution and by incubation with human plasma.
(§3) Thus, the peptide variants immobilized on solid phases were washed with T-TBS buffer (136 mM NaCl, 1.6 mM KCl, 0.05% (v/v) Tween 20, 50 mM Tris-HCl, pH 8.0) and subsequently treated with blocking buffers (5% (w/v) saccharose, 4% (w/v) bovine serum albumin in T-TBS). Incubation of the immobilized peptides with IgG-Fc (1 μg/ml) in blocking buffer and human serum (diluted 1:10,000 in blocking buffer) was effected for 3 h at room temperature. For checking the specificity of the binding, buffered serum albumin solution (blocking buffer) without addition was included as a control. Thereafter, the peptide variants immobilized on the solid phases were washed three more times with T-TBS buffer.
(§4) After incubation with alkaline phosphatase-conjugated anti-human IgG antibody (1.2 μg/ml) in blocking buffer, detection of the immunoglobulin binding was effected by means of NBT (nitroblue tetrazolium chloride)/BCIP (5-bromo-4-chloro-3-indolyl phosphate toluidine salt) as a substrate (200 μl of parent solution (18.75 mg/ml NBT and 9.4 mg/ml BCIP in 67% (v/v) DMSO) in 10 ml developing buffer (100 mM Tris-HCl, 100 mM NaCl, 5 mM MgCl2, pH 9.5)).

[1] = test system: immunoglobulins in human plasma; assay: Cellulose-immobilized 13-mer peptide variants incubated with human plasma, anti-human IgG-AP detection; settings: human plasma as sample, diluted 1:10,000 in blocking buffer, 3 h room temperature
Procedure: as §1, §2, §3, §4

human IgG-Fc = assay: Cellulose-immobilized 13-mer peptide variants incubated with human IgG-Fc, anti-human IgG-AP detection; settings: IgG-Fc 1 μg/ml in blocking buffer, 3 h room temperature
Procedure: as §1, §2, §3, §4

| Substance | Result for incubation with serum albumin (immunoglobulin binding detection) (serum albumin) | Result for incubation with human plasma (immunoglobulin binding detection) [1] | Result for incubation with human IgG-Fc (immunoglobulin binding detection) (human IgG-Fc) |
| --- | --- | --- | --- |
| 02I: cellulose-bound 13-mer variant DIAWHLGELVWCT-(βA)(βA) (DIAWHLGELVWCT[βAla][βAla]; not fully specified; printed as DIAWHLGELVWCT-(βA)(βA); also: cellulose-bound) | 0 | 0 | 0 |
| 02K: cellulose-bound 13-mer variant DKAWHLGELVWCT-(βA)(βA) (DKAWHLGELVWCT[βAla][βAla]; not fully specified; printed as DKAWHLGELVWCT-(βA)(βA); also: cellulose-bound) | 0 | 0 | 0 |
| 02L: cellulose-bound 13-mer variant DLAWHLGELVWCT-(βA)(βA) (DLAWHLGELVWCT[βAla][βAla]; not fully specified; printed as DLAWHLGELVWCT-(βA)(βA); also: cellulose-bound) | 0 | 0 | 0 |
| 02M: cellulose-bound 13-mer variant DMAWHLGELVWCT-(βA)(βA) (DMAWHLGELVWCT[βAla][βAla]; not fully specified; printed as DMAWHLGELVWCT-(βA)(βA); also: cellulose-bound) | 0 | 0 | 0 |
| 02N: cellulose-bound 13-mer variant DNAWHLGELVWCT-(βA)(βA) (DNAWHLGELVWCT[βAla][βAla]; not fully specified; printed as DNAWHLGELVWCT-(βA)(βA); also: cellulose-bound) | 0 | 0 | 0 |
| 02P: cellulose-bound 13-mer variant DPAWHLGELVWCT-(βA)(βA) (DPAWHLGELVWCT[βAla][βAla]; not fully specified; printed as DPAWHLGELVWCT-(βA)(βA); also: cellulose-bound) | 0 | 0 | 0 |
| 02Q: cellulose-bound 13-mer variant DQAWHLGELVWCT-(βA)(βA) (DQAWHLGELVWCT[βAla][βAla]; not fully specified; printed as DQAWHLGELVWCT-(βA)(βA); also: cellulose-bound) | 0 | 0 | 0 |
| 02R: cellulose-bound 13-mer variant DRAWHLGELVWCT-(βA)(βA) (DRAWHLGELVWCT[βAla][βAla]; not fully specified; printed as DRAWHLGELVWCT-(βA)(βA); also: cellulose-bound) | 0 | 0 | 0 |
| 02S: cellulose-bound 13-mer variant DSAWHLGELVWCT-(βA)(βA) (DSAWHLGELVWCT[βAla][βAla]; not fully specified; printed as DSAWHLGELVWCT-(βA)(βA); also: cellulose-bound) | 0 | 0 | 0 |
| 02T: cellulose-bound 13-mer variant DTAWHLGELVWCT-(βA)(βA) (DTAWHLGELVWCT[βAla][βAla]; not fully specified; printed as DTAWHLGELVWCT-(βA)(βA); also: cellulose-bound) | 0 | 0 | 0 |
| 02V: cellulose-bound 13-mer variant DVAWHLGELVWCT-(βA)(βA) (DVAWHLGELVWCT[βAla][βAla]; not fully specified; printed as DVAWHLGELVWCT-(βA)(βA); also: cellulose-bound) | 0 | 0 | 0 |
| 02W: cellulose-bound 13-mer variant DWAWHLGELVWCT-(βA)(βA) (DWAWHLGELVWCT[βAla][βAla]; not fully specified; printed as DWAWHLGELVWCT-(βA)(βA); also: cellulose-bound) | 0 | 0 | 0 |
| 02Y: cellulose-bound 13-mer variant DYAWHLGELVWCT-(βA)(βA) (DYAWHLGELVWCT[βAla][βAla]; not fully specified; printed as DYAWHLGELVWCT-(βA)(βA); also: cellulose-bound) | 0 | 0 | 0 |
| 03C: cellulose-bound 13-mer variant DCCWHLGELVWCT-(βA)(βA) (DCCWHLGELVWCT-{βAla-βAla-cellulose}; disulfide (positions not given here); not fully specified; printed as DCCWHLGELVWCT-(βA)(βA); reading uncertain) | 0 | 0 | 0 |
| 03D: cellulose-bound 13-mer variant DCDWHLGELVWCT-(βA)(βA) (DCDWHLGELVWCT-{βAla-βAla-cellulose}; disulfide 2-12 (inferred); reading uncertain; also: printed as DCDWHLGELVWCT-(βA)(βA)) | 0 | 0 | 0 |
| 03E: cellulose-bound 13-mer variant DCEWHLGELVWCT-(βA)(βA) (DCEWHLGELVWCT-{βAla-βAla-cellulose}; disulfide 2-12 (inferred); reading uncertain; also: printed as DCEWHLGELVWCT-(βA)(βA)) | 0 | 0 | + |
| 03F: cellulose-bound 13-mer variant DCFWHLGELVWCT-(βA)(βA) (DCFWHLGELVWCT-{βAla-βAla-cellulose}; disulfide 2-12 (inferred); reading uncertain; also: printed as DCFWHLGELVWCT-(βA)(βA)) | 0 | 0 | 0 |
